For this data set the following is noted: 298.15 K, 101.33 kPa, Liquid; for viscosity: Capillary tube (Ostwald / Ubbelohde) method; for speed of sound: Sing-around technique in a fixed-path interferometer.

Numbers after ± are expanded uncertainties.

For `CC(C)CO` [2-methyl-1-propanol], the mass density came out at 798.104 ± 1 kg/m3, the viscosity was 3.307 ± 0.025 mPa·s and the speed of sound was 1188.8 ± 1.3 m/s.
`CCCCO` [butan-1-ol]: the mass density is on record as 805.953 ± 0.47 kg/m3, the viscosity came to 2.565 ± 0.016 mPa·s and the speed of sound is 1241.1 ± 1 m/s.
Regarding `NCCN` [ethane-1,2-diamine], the mass density worked out at 892.389 ± 0.75 kg/m3, the viscosity is given as 1.405 ± 0.012 mPa·s and the speed of sound is recorded as 1671.6 ± 1.4 m/s.
For `CC(C)O` [propan-2-ol], in that order: 781.051 ± 0.51 kg/m3, 2.063 ± 0.013 mPa·s and 1140.4 ± 0.9 m/s.

These data come from the NIST ThermoML archive (doi:10.1021/je1012857).
